Results published in EP4786466A1, “QUINAZOLINE DERIVATIVE, SALT THEREOF, AND PHARMACEUTICAL COMPOSITION COMPRISING SAME AS ACTIVE INGREDIENT” (Korea Research Institute of Chemical Technology, priority 2023, dated 2025).
Like-named read-outs stand apart in the source and are kept apart here.

What was measured:
[1] = biological target: T1, Recombinant GST-TAG-MASTL (Homo sapiens, UniProt Q96GX5); assay: HTRF-based kinase assay (HTRF KinEASE assay kit); assay type: biochemical; settings: for activity at 1 µM: compound 1 µM, read-out: MASTL activity (%) HTRF (1 µM); for IC50: HTRF
T1 construct: GST; purchased Thermo Fisher Scientific
T1 sequence (Q96GX5 1-879): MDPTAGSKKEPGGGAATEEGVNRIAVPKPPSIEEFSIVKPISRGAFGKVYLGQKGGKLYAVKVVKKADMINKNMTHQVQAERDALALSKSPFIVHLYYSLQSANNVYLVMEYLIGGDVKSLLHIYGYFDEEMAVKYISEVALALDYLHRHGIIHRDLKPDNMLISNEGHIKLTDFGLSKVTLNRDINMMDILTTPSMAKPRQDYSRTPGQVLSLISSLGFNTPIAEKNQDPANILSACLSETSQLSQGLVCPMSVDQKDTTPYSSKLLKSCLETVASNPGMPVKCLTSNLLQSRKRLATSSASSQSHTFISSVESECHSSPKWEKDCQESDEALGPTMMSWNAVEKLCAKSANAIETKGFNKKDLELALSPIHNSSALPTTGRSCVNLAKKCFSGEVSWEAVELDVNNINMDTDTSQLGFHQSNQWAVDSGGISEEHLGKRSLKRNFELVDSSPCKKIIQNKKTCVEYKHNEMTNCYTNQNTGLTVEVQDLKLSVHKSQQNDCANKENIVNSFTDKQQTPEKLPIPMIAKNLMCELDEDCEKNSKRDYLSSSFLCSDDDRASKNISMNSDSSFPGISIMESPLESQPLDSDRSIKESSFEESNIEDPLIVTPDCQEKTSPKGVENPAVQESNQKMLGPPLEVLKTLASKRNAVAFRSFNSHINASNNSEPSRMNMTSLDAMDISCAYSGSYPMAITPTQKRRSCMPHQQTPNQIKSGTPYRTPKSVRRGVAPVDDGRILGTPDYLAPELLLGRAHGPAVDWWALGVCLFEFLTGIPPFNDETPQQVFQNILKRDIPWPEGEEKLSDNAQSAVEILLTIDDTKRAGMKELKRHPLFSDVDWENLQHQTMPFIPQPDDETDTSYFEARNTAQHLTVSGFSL
Excerpt: Recombinant GST-TAG-MASTL (Thermo Fisher Scientific, MA, USA) was used for HTRF-based kinase assays. The HTRF KinEASE assay kit (CisBio, MA, USA) was used according to the manufacturer's instructions.

pENSA = pENSA level by immunofluorescence (described method: in vitro kinase analysis with GST-tag-MASTL and His-tag-ENSA); assay type: cell-based; settings: for pENSA (%) Immunofluor ecense (1 µM): compound 1 µM
Outline: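 In vitro kinase reaction using recombinant GST-tagged MASTL with His-tagged ENSA as substrate; phosphorylated ENSA (pENSA) serves as read-out of MASTL activity. Cell lines named: MCF7 breast cancer and MCF10A.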

in vitro = settings: human, mcf10a cells
Protocol: (§1) MCF7 breast cancer cell lines and MCF10A normal breast cancer cell lines were treated with serial dilutions of the compounds of the present invention ranging from 1 µM to 15.63 nM for 72 hours. Cell viability was measured by the WST-8 assay (Cyto XTM cell viability assay kit; LPS solution, Daejeon, Korea) according to the manufacturer's instructions.

[2] = tested on: MCF7 breast cancer cell lines; assay: Cell viability analysis, WST-8 assay, MCF7; settings: Homo sapiens, MCF7, 72 h; for viability at 1 µM: read-out: Cell viability (%) WST-8, MCF7 (1 µM), compound 1 µM, 72 hours
Protocol: as §1

[3] = read-out: IC50(nM) MASTL activity

For COC(=O)c1ccc(Nc2nc(Nc3cc(C4CC4)[nH]n3)c3ccccc3n2)cc1 [compound 4o, Methyl 4-((4-((5-cyclopropyl-1G-pyrazol-3-yl)amino)quinazolin-2-yl)amino)benzoate], the activity at 1 µM [1] was 53.8%, the “pENSA (%) Immunofluor ecense (1 µM)” value (pENSA) was 19.2% and the IC50 (pENSA; read-out: IC50(nM) pENSA) was 680 nM. For the same compound, the viability at 1 µM (in vitro) was 79.4% and the viability at 1 µM [2] was 53.4%.
In the case of CC(C)(C)OC(=O)N1CC=C(c2nc(Nc3cc(C4CC4)[nH]n3)c3ccccc3n2)CC1 [compound 7, sdqs-butyl 4-(4-((5-cyclopropyl-1G-pyrazol-3-yl)amino)quinazolin-2-yl)-3,6-dihydropyridine-1(2G)-carboxylate], the IC50 [1, 3] is reported as 315 nM, the activity at 1 µM [1] is reported as 31% and the “pENSA (%) Immunofluor ecense (1 µM)” value (pENSA) is reported as 68.2%. The viability at 1 µM (in vitro) was 54.9% and the viability at 1 µM [2] was 84.2%.
With Fc1ccccc1C1=CCN(c2nc(Nc3cc(C4CC4)[nH]n3)c3ccccc3n2)CC1 [compound 6k, M-(5-cyclopropyl-1G-pyrazol-3-yl)-2-(4-(2-fluorophenyl)-3,6-dihydropyridin-1(2G)-yl)quinazolin-4-amine] the IC50 [1, 3] was 406 nM, the activity at 1 µM [1] was 40.6% and the “pENSA (%) Immunofluor ecense (1 µM)” value (pENSA) was 82%. The viability at 1 µM (in vitro) was 90.8% and the viability at 1 µM [2] was 91%.
For CCCc1ccc(S(=O)(=O)N2CC3CC2CN3c2nc(Nc3cc(C4CC4)[nH]n3)c3ccccc3n2)cc1 (stereo not shown) [compound 15x, M-(5-cyclopropyl-1G-pyrazol-3-yl)-2-(5-((4-propylphenyl)sulfonyl)-2,5-diazabicyclo[2.2.1]heptan-2-yl)quinazolin-4-amine], the activity at 1 µM [1] was 68.4%, the “pENSA (%) Immunofluor ecense (1 µM)” value (pENSA) was 94.0% and the viability at 1 µM (in vitro) was 98.3%. It also gave a viability at 1 µM [2] of 122%.
With CC(C)(C)OC(=O)N1CCC2(CC1)CN(c1nc(Nc3cc(C4CC4)[nH]n3)c3ccccc3n1)C2 [6d, sdqs-butyl 2-(4-((5-cyclopropyl-1G-pyrazol-3-yl)amino)quinazolin-2-yl)-2,7-diazaspiro[3.5]nonane-7-carboxylate] the activity at 1 µM [1] was 48%, the “pENSA (%) Immunofluor ecense (1 µM)” value (pENSA) was 96.4% and the viability at 1 µM (in vitro) was 104%. The viability at 1 µM [2] was 88.6%.
With CC(C)C(=O)N1CC2CC1CN2c1nc(Nc2cc(C3CC3)[nH]n2)c2ccccc2n1 (stereo not shown) [compound 15d, 1-(5-(4-((5-cyclopropyl-1G-pyrazol-3-yl)amino)quinazolin-2-yl)-2,5-diazabicyclo[2.2.1]heptan-2-yl)-2-methylpropan-1-one] the activity at 1 µM [1] was 58.8%, the “pENSA (%) Immunofluor ecense (1 µM)” value (pENSA) was 68.6% and the viability at 1 µM (in vitro) was 40.3%. The viability at 1 µM [2] was 51.5%.
For CC(C)CN1CC2CC1CN2c1nc(Nc2cn[nH]c2)c2ccccc2n1 (stereo not shown) [compound 28e, 2-(5-isobutyl-2,5-diazabicyclo[2.2.1]heptan-2-yl)-M-(1G-pyrazol-4-yl)quinazolin-4-amine], the activity at 1 µM [1] was 103%, the “pENSA (%) Immunofluor ecense (1 µM)” value (pENSA) was 95.8% and the viability at 1 µM (in vitro) was 105%. For the same compound, the viability at 1 µM [2] was 97.3%.
In the case of CC(C)CN1CC2CC1CN2c1nc(Nc2cc(C3CC3)[nH]n2)c2ccccc2n1 (stereo not shown) [compound 15f, M-(5-cyclopropyl-1G-pyrazol-3-yl)-2-(5-isobutyl-2,5-diazabicyclo[2.2.1]heptan-2-yl)quinazolin-4-amine], the activity at 1 µM [1] is reported as 65.7%, the “pENSA (%) Immunofluor ecense (1 µM)” value (pENSA) is reported as 65.3% and the viability at 1 µM (in vitro) is reported as 90.1%. The viability at 1 µM [2] was 71.7%.
With CC(C)(C)OC(=O)Cc1ccc(Nc2nc(Nc3cc(C4CC4)[nH]n3)c3ccccc3n2)cc1 [compound 4q, sdqs-butyl 2-(4-((4-((5-cyclopropyl-1G-pyrazol-3-yl)amino)quinazolin-2-yl)amino)phenyl)acetate] the activity at 1 µM [1] was 76.1%, the “pENSA (%) Immunofluor ecense (1 µM)” value (pENSA) was 53.6% and the viability at 1 µM (in vitro) was 98.8%. It also gave a viability at 1 µM [2] of 107%.
For c1ccc2sc(-c3ccc(Nc4nc(Nc5cc(C6CC6)[nH]n5)c5ccccc5n4)cc3)nc2c1 [compound 4m, M^2-(4-(benzo[c]thiazol-2-yl)phenyl)-M^4-(5-cyclopropyl-1G-pyrazol-3-yl)quinazoline-2,4-diamine], the activity at 1 µM [1] was 73%, the “pENSA (%) Immunofluor ecense (1 µM)” value (pENSA) was 88.8% and the viability at 1 µM (in vitro) was 85.8%. For the same compound, the viability at 1 µM [2] was 110%.
With CC(C)(C)OC(=O)NCCCCCNC(=O)c1ccc(Nc2nc(Nc3cc(C4CC4)[nH]n3)c3ccccc3n2)cc1 [4z, sdqs-butyl (5-(4-((4-((5-cyclopropyl-1G-pyrazol-3-yl)amino)quinazolin-2-yl)amino)benzamido)pentyl)carbamate] the activity at 1 µM [1] was 85.3%, the “pENSA (%) Immunofluor ecense (1 µM)” value (pENSA) was 188% and the viability at 1 µM (in vitro) was 77.7%. It also gave a viability at 1 µM [2] of 86.3%.
For CC(C)(C)OC(=O)c1ccc(Nc2nc(Nc3cc(C4CC4)[nH]n3)c3ccccc3n2)cc1 [compound 4p, sdqs-butyl 4-((4-((5-cyclopropyl-1G-pyrazol-3-yl)amino)quinazolin-2-yl)amino)benzoate], the activity at 1 µM [1] was 58%, the “pENSA (%) Immunofluor ecense (1 µM)” value (pENSA) was 56.2% and the viability at 1 µM (in vitro) was 86.8%. It also gave a viability at 1 µM [2] of 100%.
With O=S(=O)(c1cccc(Cl)c1)N1CC2CC1CN2c1nc(Nc2cc(C3CC3)[nH]n2)c2ccccc2n1 (stereo not shown) [compound 15q, 2-(5-((3-chlorophenyl)sulfonyl)-2,5-diazabicyclo[2.2.1]heptan-2-yl)-M-(5-cyclopropyl-1G-pyrazol-3-yl)quinazolin-4-amine] the IC50 [1, 3] was 545 nM, the activity at 1 µM [1] was 49.2% and the “pENSA (%) Immunofluor ecense (1 µM)” value (pENSA) was 62.5%. For the same compound, the viability at 1.1 µM (in vitro) was 108% and the viability at 1.1 µM ([2]; read-out: Cell viability (%) WST-8, MCF7, footnote d: concentration 1.1 µM, 72 hours) was 106%.
With FC(F)(F)c1ccc(C2=CCN(c3nc(Nc4cc(C5CC5)[nH]n4)c4ccccc4n3)CC2)cc1 [compound 6f, M-(5-cyclopropyl-1G-pyrazol-3-yl)-2-(4-(4-(trifluoromethyl)phenyl)-3,6-dihydropyridin-1(2G)-yl)quinazolin-4-amine] the activity at 1 µM [1] was 55.8%, the “pENSA (%) Immunofluor ecense (1 µM)” value (pENSA) was 110% and the viability at 1 µM (in vitro) was 102%. For the same compound, the viability at 1 µM [2] was 91.9%.
For Clc1nc(Nc2cc(C3CC3)[nH]n2)c2ccccc2n1 [compound 2a, 2-chloro-M-(5-cyclopropyl-1G-pyrazol-3-yl)quinazolin-4-amine], the activity at 1 µM [1] was 73.4%, the “pENSA (%) Immunofluor ecense (1 µM)” value (pENSA) was 105% and the viability at 1 µM (in vitro) was 93.3%. The viability at 1 µM [2] was 106%.
With CC(C)C(=O)N1CC2CC1CN2c1nc(Nc2cn[nH]c2)c2ccccc2n1 (stereo not shown) [compound 28c, 1-(5-(4-((1G-pyrazol-4-yl)amino)quinazolin-2-yl)-2,5-diazabicyclo[2.2.1]heptan-2-yl)-2-methylpropan-1-one] the activity at 1 µM [1] was 117%, the “pENSA (%) Immunofluor ecense (1 µM)” value (pENSA) was 80.0% and the viability at 1 µM (in vitro) was 85.3%. It also gave a viability at 1 µM [2] of 105%.
In the case of C1=C(Cc2ccccc2)CCN(c2nc(Nc3cc(C4CC4)[nH]n3)c3ccccc3n2)C1 [compound 6h, 2-(4-benzyl-3,6-dihydropyridin-1(2G)-yl)-M-(5-cyclopropyl-1G-pyrazol-3-yl)quinazolin-4-amine], the IC50 [1, 3] is reported as 995 nM, the activity at 1 µM [1] is reported as 46% and the “pENSA (%) Immunofluor ecense (1 µM)” value (pENSA) is reported as 93%. The viability at 1 µM (in vitro) was 59.8% and the viability at 1 µM [2] was 89.7%.
With CC(C)(C)OC(=O)N1C2CCC1CN(c1nc(Nc3cc(C4CC4)[nH]n3)c3ccccc3n1)C2 [19' (B), sdqs-butyl 3-(4-((5-cyclopropyl-1G-pyrazol-3-yl)amino)quinazolin-2-yl)-3,8-diazabicyclo[3.2.1]octane-8-carboxylate] the IC50 [1, 3] was 282 nM, the activity at 1 µM [1] was 32.2% and the “pENSA (%) Immunofluor ecense (1 µM)” value (pENSA) was 74.7%. The viability at 1 µM (in vitro) was 101% and the viability at 1 µM [2] was 74.8%.
For Cc1cc(Nc2nc(N3CC4CC3CN4CC(C)C)nc3ccccc23)n[nH]1 (stereo not shown) [compound 27e, 2-(5-isobutyl-2,5-diazabicyclo[2.2.1]heptan-2-yl)-M-(5-methyl-1G-pyrazol-3-yl)quinazolin-4-amine], the activity at 1 µM [1] was 67.4%, the “pENSA (%) Immunofluor ecense (1 µM)” value (pENSA) was 90.1% and the viability at 1 µM (in vitro) was 74.8%. For the same compound, the viability at 1 µM [2] was 88.3%.
In the case of Brc1ccc(Nc2nc(Nc3cc(C4CC4)[nH]n3)c3ccccc3n2)cc1 [compound 4b, M^2-(4-bromophenyl)-M^4-(5-cyclopropyl-1G-pyrazol-3-yl)quinazoline-2,4-diamine], the IC50 ([1]; unit µM, read-out: IC50 MASTL activity) is reported as 1400 nM, the activity at 1 µM [1] is reported as 43.2% and the “pENSA (%) Immunofluor ecense (1 µM)” value (pENSA) is reported as 82%. It also gave an IC50 (pENSA; unit µM, read-out: IC50 pENSA) of 1100 nM, a viability at 1 µM (in vitro) of 68.2% and a viability at 1 µM [2] of 47.7%.
